Marks after values point to notes of the source that are not given here.
What was measured:
control mice = test: Radiant heat tail-flick antinociception, control (LPS-untreated) mice; assay type: in vivo; conditions: control mice; for CONTROLS ED50 (CI) i.t. / CONTROLS ED50 (CI) i.c.v.: tail flick
Excerpt: Pain is a hallmark of many inflammatory conditions.

LPS-pretreated mice = test: animal or person; conditions: for LPS pretreated i.c.v./i.t. ratio / LPS pretreated ED50 (CI) i.c.v. / LPS pretreated ED50 (CI) i.t.: LPS 1 mg/kg 24 hours i.p.; for LPS pretreated ED50 (CI) i.c.v. / LPS pretreated ED50 (CI) i.t.: tail flick; for Relative Potency relative to a mixture of monovalent mu agonist (4) and CCR5 antagonist (2): mouse, in vivo; for percent maximal possible effect at highest dose measured: 1000 pmol/mouse; for ED50 values (95% CI) LPS (thermal): LPS thermal hyperalgesia model
Protocol: Male ICR-CD1 mice (17-25 g; Harlan, Madison, Wis.), C3H mice (15-20 g, National Cancer Institute, Bethesda, Md.) or TLR4 knock-out mice (gift from Dr. Sabita Roy) were housed, 4 to a small box in a temperature- and humidity-controlled environment with unlimited access to food and water. They were maintained on a 12 h light/dark cycle. All experiments were approved by the Institutional Animal Care and Use Committee of the University of Minnesota (Minneapolis, Minn.).
The tail flick assay is used to test for antinociception described by D'Amour and Smith^64 and modified by Dewey et. al.^65 Mice are held gently in one hand with the tail positioned in the apparatus (Tail Flick Analgesia Meter, Columbus Instruments, Columbus, Ohio) for radiant heat stimulus. The tail-flick response is elicited by applying radiant heat to the dorsal side of the tail. The test latency is measured before drug treatment (control) and again after the drug treatment (test) at the peak time of the compound, a 10 s maximum cut-off time is used to prevent damage to the tail. Antinociception is quantified according to the method of Harris and Pierson^66 as the percent maximal possible effect (% MPE) which is calculated as: % MPE=(Test−Control/10−Control)×100
A minimum of three groups of eight to ten mice are used for each dose response curve, and each mouse is used only once.
The compounds were tested for acute tolerance by comparing the ED80-90 dose measured on day 1 to the same dose administered and retested 24 hours later on the same mouse.
Compounds were dissolved in 5% DMSO and diluted to less than 1% DMSO for injection. These compounds were administered in a volume of 5-μl either i.c.v (Haley and McCormick) or intrathecal (i.t.) as described for mice by Hylden and Wilcox^67 in conscious mice. […] Time course studies, including the times 5, 10, 20, 30 and 60 minutes were used to determine the peak antinociception.
Pain is a hallmark of many inflammatory conditions. […] Antinociception was evaluated using the radiant heat-induced tailflick assay. Morphine was employed as a standard opioid agonist under these conditions.

[1] = system: CFA-induced mechanical hyperalgesia mouse model; test: Complete Freund's Adjuvant (CFA) mechanical hyperalgesia, electronic von Frey; assay type: in vivo, mice; conditions: i.t.
Protocol: Before injection of CFA baseline withdrawal thresholds (g) were obtained from a mechanical stimulation using an electronic von Frey anesthesiometer (IITC Life Sciences, Woodland Hills, USA) by applying an accurate force on both left and right hind paw. (2,3) The left hindpaws were then injected (intraplantar) with a 50% solution of CFA (10 μg, Sigma-Aldrich) in water while the mice are under isoflurane anesthesia (10). Twenty-four hours later the withdrawal threshold (g) was again measured prior to and after the test compound i.t. at 10, 20, 30 and 60 minutes to determine the peak time and subsequent ED50. % MPE was calculated ((Time-point withdrawal threshold with drug−CFA withdrawal threshold)/(Day 0 withdrawal threshold−CFA withdrawal threshold))*100 (Wade, C. L., et al., PLoS One 2013, 8, e79239/1-e79239/11, 11 pp; Martinov, T., et al., J Vis Exp 2013, e51212; Sorge, R. E., et al., J. Neurosci. 2011, 31, 15450-15454).

| SMILES | percent maximal possible effect at highest dose measured (control mice; i.c.v., 250 pmol/mouse) [%] | acute tolerance (ED80 retested 24 hours later) (control mice; i.t.) | CONTROLS ED50 (CI) i.t. (control mice; i.t.) [pmol/mouse] | LPS pretreated i.c.v./i.t. ratio (LPS-pretreated mice) | LPS pretreated ED50 (CI) i.c.v. (LPS-pretreated mice; i.c.v.) [pmol/mouse] | LPS pretreated ED50 (CI) i.t. (LPS-pretreated mice; i.t.) [pmol/mouse] | Relative Potency relative to a mixture of monovalent mu agonist (4) and CCR5 antagonist (2) (LPS-pretreated mice) | CONTROLS ED50 (CI) i.c.v. (control mice; i.c.v.) [pmol/mouse] | percent maximal possible effect at highest dose measured (control mice; i.t., 500 pmol/mouse) [%] | percent maximal possible effect at highest dose measured (LPS-pretreated mice; LPS pretreated, i.c.v.) [%] | percent maximal possible effect at highest dose measured (LPS-pretreated mice; LPS pretreated, i.t.) [%] | CONTROLS i.c.v./i.t. ratio (control mice) | percent maximal possible effect at highest dose measured (control mice; i.c.v., 1000 pmol/mouse) | % MPE still present 24 hours later (LPS-pretreated mice; LPS pretreated, i.t., 24 hours later) [% MPE] | acute tolerance (ED80 retested 24 hours later) (control mice; i.c.v.) | ED50 values (95% CI) LPS (thermal) (LPS-pretreated mice; i.t.) [pmol/mouse] | tolerance upon repeated administration (LPS-pretreated mice; i.t., LPS-pretreated mice) | ED50 values (95% CI) CFA (mechanical) [1] [pmol/mouse] | percent maximal possible effect at highest dose measured (control mice; i.t., 1000 pmol/mouse) [%] |
| --- | --- | --- | --- | --- | --- | --- | --- | --- | --- | --- | --- | --- | --- | --- | --- | --- | --- | --- | --- |
| Cc1ccc(N(CCCN2CCC(Cc3ccc(C(N)=O)cc3)CC2)C(=O)C2CCN(C(=O)COCC(=O)NCCCCCCCNC(=O)COCC(=O)N[C@H]3CC[C@@]4(O)C5Cc6ccc(O)c7c6[C@@]4(CCN5C)[C@H]3O7)CC2)cc1Cl [Compound 3c, N-(3-(4-(4-carbamoylbenzyl)piperidin-1-yl)propyl)-N-(3-chloro-4-methylphenyl)-1-(19-(((4aS,7S,7aR,12bS)-4a,9-dihydroxy-3-methyl-2,3,4,4a,5,6,7,7a-octahydro-1H-4,12-methanobenzofuro[3,2-e]isoquinolin-7-yl)amino)-5,15,19-trioxo-3,17-dioxa-6,14-diazanonadecan-1-oyl)piperidine-4-carboxamide] | 35.9 ± 9.0 | (54.6-507)^c | 166 | 60.7 | 692 | 11.4 | 4.6 | – | – | – | – | – | – | – | – | – | – | – | – |
| CNC(=O)COCC(=O)NCCCCCCCNC(=O)COCC(=O)N1CCC(C(=O)N(CCCN2CCC(Cc3ccc(C(N)=O)cc3)CC2)c2ccc(C)c(Cl)c2)CC1 [Compound 5, N-(3-(4-(4-carbamoylbenzyl)piperidin-1-yl)propyl)-N-(3-chloro-4-methylphenyl)-1-(3,7,17-trioxo-5,19-dioxa-2,8,16-triazahenicosan-21-oyl)piperidine-4-carboxamide] | – | – | – | – | – | – | – | 505 | 28.1 ± 11.3 | 51.9 ± 12.3 | 32.4 ± 12.5 | – | – | – | – | – | – | – | – |
| Cc1ccc(N(CCCN2CCC(Cc3ccc(C(N)=O)cc3)CC2)C(=O)C2CCN(C(=O)COCC(=O)NCCCCCCCCCNC(=O)COCC(=O)N[C@H]3CC[C@@]4(O)C5Cc6ccc(O)c7c6[C@@]4(CCN5C)[C@H]3O7)CC2)cc1Cl [Compound 3d, N-(3-(4-(4-carbamoylbenzyl)piperidin-1-yl)propyl)-N-(3-chloro-4-methylphenyl)-1-(21-(((4aS,7S,7aR,12bS)-4a,9-dihydroxy-3-methyl-2,3,4,4a,5,6,7,7a-octahydro-1H-4,12-methanobenzofuro[3,2-e]isoquinolin-7-yl)amino)-5,17,21-trioxo-3,19-dioxa-6,16-diazahenicosan-1-oyl)piperidine-4-carboxamide] | – | – | 15.83 | 118.62 | – | 8.43 | 6.2 | – | – | 63.1 ± 45.2 | – | 63.98 | 54.5 ± 14.5^ % | 24 | – | – | – | – | – |
| CNC(=O)COCC(=O)NCCCCCCCNC(=O)COCC(=O)N[C@H]1CC[C@@]2(O)C3Cc4ccc(O)c5c4[C@@]2(CCN3C)[C@H]1O5 [Compound 4, reference compound] | – | (86.5-148)^c | 113 | 7.93 | 169 | 21.3 | – | 108 | – | – | – | 0.95 | – | – | (83.1-141)^c | 21 | exhibited tolerance | 27 | – |
| Cc1ccc(N(CCCN2CCC(Cc3ccc(C(N)=O)cc3)CC2)C(=O)C2CCN(C(=O)COCC(=O)NCCCCCNC(=O)COCC(=O)N[C@H]3CC[C@@]4(O)C5Cc6ccc(O)c7c6[C@@]4(CCN5C)[C@H]3O7)CC2)cc1Cl [Compound 3b, N-(3-(4-(4-carbamoylbenzyl)piperidin-1-yl)propyl)-N-(3-chloro-4-methylphenyl)-1-(17-(((4aS,7S,7aR,12bS)-4a,9-dihydroxy-3-methyl-2,3,4,4a,5,6,7,7a-octahydro-1H-4,12-methanobenzofuro[3,2-e]isoquinolin-7-yl)amino)-5,13,17-trioxo-3,15-dioxa-6,12-diazaheptadecan-1-oyl)piperidine-4-carboxamide] | – | (253-543)^c | 371 | 6.38 | 187 | 10.9 | 4.8 | 358 | – | – | – | 3.14 | – | – | (166-72.2)^c | – | – | – | – |
| CC(=O)N1CCC(C(=O)N(CCCN2CCC(Cc3ccc(C(N)=O)cc3)CC2)c2ccc(C)c(Cl)c2)CC1 [Compound 2, TAK-220, reference compound] | – | – | – | – | – | 740 | – | – | – | 7.6 ± 1.5 | – | 1 | 26.2 ± 5.9% | – | – | – | – | – | 34.2 ± 10.8 |
| Cc1ccc(N(CCCN2CCC(Cc3ccc(C(N)=O)cc3)CC2)C(=O)C2CCN(C(=O)COCC(=O)NCCCCCCCCCCCCNC(=O)COCC(=O)N[C@H]3CC[C@@]4(O)C5Cc6ccc(O)c7c6[C@@]4(CCN5C)[C@H]3O7)CC2)cc1Cl [Compound 3f, N-(3-(4-(4-carbamoylbenzyl)piperidin-1-yl)propyl)-N-(3-chloro-4-methylphenyl)-1-(24-(((4aS,7S,7aR,12bS)-4a,9-dihydroxy-3-methyl-2,3,4,4a,5,6,7,7a-octahydro-1H-4,12-methanobenzofuro[3,2-e]isoquinolin-7-yl)amino)-5,20,24-trioxo-3,22-dioxa-6,19-diazatetracosan-1-oyl)piperidine-4-carboxamide] | – | – | 336.9 | 8.15^d | – | 122.70 | 0.4 | – | – | 55.7 ± 11.2 | – | ~2.97 | 27.6 ± 9.1% | – | – | 123 | – | 58 | – |
| Cc1ccc(N(CCCN2CCC(Cc3ccc(C(N)=O)cc3)CC2)C(=O)C2CCN(C(=O)COCC(=O)NCCNC(=O)COCC(=O)N[C@H]3CC[C@@]4(O)C5Cc6ccc(O)c7c6[C@@]4(CCN5C)[C@H]3O7)CC2)cc1Cl [Compound 3a, N-(3-(4-(4-carbamoylbenzyl)piperidin-1-yl)propyl)-N-(3-chloro-4-methylphenyl)-1-(14-(((4aS,7S,7aR,12bS)-4a,9-dihydroxy-3-methyl-2,3,4,4a,5,6,7,7a-octahydro-1H-4,12-methanobenzofuro[3,2-e]isoquinolin-7-yl)amino)-5,10,14-trioxo-3,12-dioxa-6,9-diazatetradecan-1-oyl)piperidine-4-carboxamide] | – | (27.3-38.4)^b | 32.3 | 5.32 | 56.41 | 10.6 | 4.9 | 107 | – | – | – | 3.29 | – | – | (78.2-145)^c | 11 | – | 3 | – |

Reference: patent US10464941B2, “Therapeutic compounds” (REGENTS OF THE UNIVERSITY OF MINNESOTA, priority 2015, dated 2019)
